Laboratory results published in patent publication US11058688B2, “Imidazopiperazine inhibitors of transcription activating proteins” (Board of Regents, The University of Texas System, priority 2018, dated 2021).
pIC50: −log10 of the molar value.

Legend:
[1] = target: GST-CBP(1081-1197) bromodomain (Homo sapiens (Human), UniProt Q92793); experiment: CBP AlphaScreen Assay; details: binding to biotin-H4(1-21) Ac-K5/8/12/16 peptide
Procedure, shortened: (§1)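 IC50 values derived by variable-slope dose-response fit between negative and DMSO control signals. AlphaScreen signal reports bromodomain association with an H4(1-21) peptide acetylated at K5, K8, K12 and K16.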

BRD4(49-170) bromodomain = BRD4(49-170) bromodomain (Homo sapiens (Human), UniProt O60885); experiment: BRD4 AlphaScreen Assay; details: binding to biotin-H4(1-21) Ac-K5/8/12/16 peptide
Procedure, shortened: as §1

GST-CBP(1081-1197) bromodomain, sequence (Q92793 1081-1197): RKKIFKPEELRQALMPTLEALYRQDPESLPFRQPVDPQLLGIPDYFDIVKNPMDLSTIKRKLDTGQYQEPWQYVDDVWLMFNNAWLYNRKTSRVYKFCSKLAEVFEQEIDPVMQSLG

Structure (SMILES)	pIC50 [1]	pIC50 (BRD4(49-170) bromodomain)
CNC(=O)N1CCn2c(C3CC(F)(F)C3)nc(-c3cccc4cc(-c5cnc(C)s5)ncc34)c2C1 [Example 96, 3-(3,3-difluorocyclobutyl)-N-methyl-1-(3-(2-methylthiazol-5-yl)isoquinolin-8-yl)-5,6-dihydroimidazo[1,5-a]pyrazine-7(8H)-carboxamide]	8.70	5.26
CNC(=O)N1CCn2c(C3CC3)nc(-c3cccc4nc(-c5cn(C)nc5C)c(C#N)cc34)c2C1 [Example 98, 1-(3-cyano-2-(1,3-dimethyl-1H-pyrazol-4-yl)quinolin-5-yl)-3-cyclopropyl-N-methyl-5,6-dihydroimidazo[1,5-a]pyrazine-7(8H)-carboxamide]	7.60	5.02
CNC(=O)c1ccc(-c2nc3cccc(-c4nc(C5CC5)n5c4CN(C(=O)NC)CC5)c3cc2C#N)cn1 [Example 99, 1-(3-cyano-2-(6-(methylcarbamoyl)pyridin-3-yl)quinolin-5-yl)-3-cyclopropyl-N-methyl-5,6-dihydroimidazo[1,5-a]pyrazine-7(8H)-carboxamide]	7.96	5.06
CNC(=O)N1CCn2c(C3CC3)nc(-c3cccc4nc(N5CC6(COC6)C5)c(C#N)cc34)c2C1 [Example 102, 1-(3-cyano-2-(2-oxa-6-azaspiro[3.3]heptan-6-yl)quinolin-5-yl)-3-cyclopropyl-N-methyl-5,6-dihydroimidazo[1,5-a]pyrazine-7(8H)-carboxamide]	7.72	< 4.60
CC(=O)N1CCn2c(C3CCOC3)nc(-c3cc4c(-c5cnn(C)c5)nn(C)c4cc3F)c2C1 (stereo not shown) [Example 103, 1-(1-(6-fluoro-1-methyl-3-(1-methyl-1H-pyrazol-4-yl)-1H-indazol-5-yl)-3-(tetrahydrofuran-3-yl)-5,6-dihydroimidazo[1,5-a]pyrazin-7(8H)-yl)ethan-1-one]	6.83	< 4.60
CNC(=O)N1CCn2c(C3CC3)nc(-c3ccc4c(c3)c(-c3cnn(C)c3)nn4C)c2C1 [Example 105, 3-cyclopropyl-N-methyl-1-(1-methyl-3-(1-methyl-1H-pyrazol-4-yl)-1H-indazol-5-yl)-5,6-dihydroimidazo[1,5-a]pyrazine-7(8H)-carboxamide]	7.82	5.12
CC(=O)N1CCn2c(C3CC3)nc(N3CCCc4cc(-c5cnn(C6CC6)c5)ccc43)c2C1 [Example 108, 1-(3-cyclopropyl-1-(6-(1-cyclopropyl-1H-pyrazol-4-yl)-3,4-dihydroquinolin-1(2H)-yl)-5,6-dihydroimidazo[1,5-a]pyrazin-7(8H)-yl)ethan-1-one]	6.83	4.84
CC(=O)N1CCn2c(C3CC3)nc(N3CCCc4cc(-c5cnn(C6CCOCC6)c5)ccc43)c2C1 [Example 109, 1-(3-cyclopropyl-1-(6-(1-(tetrahydro-2H-pyran-4-yl)-1H-pyrazol-4-yl)-3,4-dihydroquinolin-1(2H)-yl)-5,6-dihydroimidazo[1,5-a]pyrazin-7(8H)-yl)ethan-1-one]	6.46	4.86
CC(=O)N1CCn2c(C3CC3)nc(N3CCCc4cc(-c5cnn(C(F)F)c5)ccc43)c2C1 [Example 110, 1-(3-cyclopropyl-1-(6-(1-(difluoromethyl)-1H-pyrazol-4-yl)-3,4-dihydroquinolin-1(2H)-yl)-5,6-dihydroimidazo[1,5-a]pyrazin-7(8H)-yl)ethan-1-one]	6.73	4.95
CC(=O)N1CCn2c(C3CC3)nc(N3CCCc4cc(-c5c(C)noc5C)ccc43)c2C1 [Example 111, 1-(3-cyclopropyl-1-(6-(3,5-dimethylisoxazol-4-yl)-3,4-dihydroquinolin-1(2H)-yl)-5,6-dihydroimidazo[1,5-a]pyrazin-7(8H)-yl)ethan-1-one]	5.84	4.99
CC(=O)N1CCn2c(C3CC3)nc(N3CCCc4cc(-c5ccnc(N6CCOCC6)c5)ccc43)c2C1 [Example 112, 1-(3-cyclopropyl-1-(6-(2-morpholinopyridin-4-yl)-3,4-dihydroquinolin-1(2H)-yl)-5,6-dihydroimidazo[1,5-a]pyrazin-7(8H)-yl)ethan-1-one]	6.57	4.68
CC(=O)N1CCn2c(C3CC3)nc(N3CCCc4cc(-c5ccc(=O)n(C)c5)ccc43)c2C1 [Example 113, 5-(1-(7-acetyl-3-cyclopropyl-5,6,7,8-tetrahydroimidazo[1,5-a]pyrazin-1-yl)-1,2,3,4-tetrahydroquinolin-6-yl)-1-methylpyridin-2(1H)-one]	6.71	5.46

The remaining molecules from weak to strong by pIC50 [1], led by results:

pIC50 [1]	pIC50 (BRD4(49-170) bromodomain)	Structure (SMILES)
6.17	< 4.60	CC(=O)N1CCn2c(C3CC3)nc(N3CCCc4cc(-c5cnn(CC6CC6)c5)ccc43)c2C1 [Example 115, 1-(3-cyclopropyl-1-(6-(1-(cyclopropylmethyl)-1H-pyrazol-4-yl)-3,4-dihydroquinolin-1(2H)-yl)-5,6-dihydroimidazo[1,5-a]pyrazin-7(8H)-yl)ethan-1-one]
6.21	< 4.60	CC(=O)N1CCn2c(C3CC3)nc(N3CCCc4cc(-c5ccncc5)ccc43)c2C1 [Example 114, 1-(3-cyclopropyl-1-(6-(pyridin-4-yl)-3,4-dihydroquinolin-1(2H)-yl)-5,6-dihydroimidazo[1,5-a]pyrazin-7(8H)-yl)ethan-1-one]
6.29	< 4.60	CC(=O)N1CCn2c(C3CC3)nc(N3CCCc4cc(-c5cncc(S(C)(=O)=O)c5)ccc43)c2C1 [Example 107, 1-(3-cyclopropyl-1-(6-(5-(methylsulfonyl)pyridin-3-yl)-3,4-dihydroquinolin-1(2H)-yl)-5,6-dihydroimidazo[1,5-a]pyrazin-7(8H)-yl)ethan-1-one]
6.54	< 4.60	CC(=O)N1CCn2c(C3CC3)nc(-c3ccc4c(c3)c(-c3cn(C)nc3C)nn4C)c2C1 [Example 106, 1-(3-cyclopropyl-1-(3-(1,3-dimethyl-1H-pyrazol-4-yl)-1methyl-1H-indazol-5-yl)-5,6-dihydroimidazo[1,5-a]pyrazin-7(8H)-yl)ethan-1-one]
6.97	5.43	CC(=O)N1CCn2c(C3CCOCC3)nc(-c3ccc4c(c3)c(-c3cnn(C)c3)nn4C)c2C1 [Example 104, 1-(1-(1-methyl-3-(1-methyl-1H-pyrazol-4-yl)-1H-indazol-5-yl)-3-(tetrahydro-2H-pyran-4-yl)-5,6-dihydroimidazo[1,5-a]pyrazin-7(8H)-yl)ethan-1-one]
7.72	4.61	CNC(=O)N1CCn2c(C3CC3)nc(-c3cccc4nc(-c5cn(C)nc5C)c(C(F)(F)F)cc34)c2C1 [Example 101, 3-cyclopropyl-1-(2-(1,3-dimethyl-1H-pyrazol-4-yl)-3-(trifluoromethyl)quinolin-5-yl)-N-methyl-5,6-dihydroimidazo[1,5-a]pyrazine-7(8H)-carboxamide]
8.40	5.10	CNC(=O)N1CCn2c(C3CC3)nc(-c3cccc4nc(-c5cnc(C)s5)c(C#N)cc34)c2C1 [Example 100, 1-(3-cyano-2-(2-methylthiazol-5-yl)quinolin-5-yl)-3-cyclopropyl-N-methyl-5,6-dihydroimidazo[1,5-a]pyrazine-7(8H)-carboxamide]
9.00	5.48	CNC(=O)N1CCn2c(C3CCC(F)(F)CC3)nc(-c3cccc4cc(-c5cnc(C)s5)ncc34)c2C1 [Example 97, 3-(4,4-difluorocyclohexyl)-N-methyl-1-(3-(2-methylthiazol-5-yl)isoquinolin-8-yl)-5,6-dihydroimidazo[1,5-a]pyrazine-7(8H)-carboxamide]
